According to US7511144B2, “Reverse hydroxamic acid derivatives” (Kaken Pharmaceutical Co., Ltd., priority 2001, dated 2009):
Read-outs that look alike come from different tables or passages of the source.

Legend:
Format in all cases: biochemical
[1] = biological target: T1, Human MMP13 (Homo sapiens, UniProt P45452); experiment: MMP13 inhibition experiment; settings: concentration required for 50% inhibition of enzyme activity; read-out: IC50 value MMP-13
T1 construct: purchased Chemicon CC068
Protocol: Human MMP13 (Chemicon #CC068) in amount of 90 μL (200 ng) was activated by mixing with 10 μL of 10 mM APMA, followed by reaction for 1 hour at 37° C. This enzyme solution in amount of 0.6 μL was diluted to 90 μL with the assay buffer A, which was added to 90 μL of 20 μM fluorescent substrate (Dnp-Pro-Cha-Gly-Cys(Me)-His-Ala-Lys(Nma)-NH2) prepared in the assay buffer B, followed by reaction for 4 hours at 37° C.

[2] = biological target: T2, Human MMP17 (Homo sapiens, UniProt Q9ULZ9); experiment: MMP17 inhibition test; settings: concentration required for 50% inhibition of enzyme activity; read-out: IC50 value MMP-17
T2 construct: purchased Calbiochem 475940
T2 sequence (Q9ULZ9 126-300 limits assumed): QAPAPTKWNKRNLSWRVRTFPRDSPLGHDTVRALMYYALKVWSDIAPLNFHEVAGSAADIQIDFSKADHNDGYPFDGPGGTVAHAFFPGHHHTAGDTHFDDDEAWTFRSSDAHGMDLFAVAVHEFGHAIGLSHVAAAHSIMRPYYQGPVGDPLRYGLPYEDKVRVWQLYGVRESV

[3] = biological target: T3, Human MMP14 (Homo sapiens, UniProt P50281); experiment: MMP14 inhibition experiment; settings: concentration required for 50% inhibition of enzyme activity; read-out: IC50 value MMP-14
T3 construct: purchased Biogenesis or Calbiochem 5980-1461 or 475935
Protocol: (§1) MMP inhibition experiment may be carried out using a fluorescent synthetic substrate according to, for example, the methods of Bickett et al. (D. Mark Bickett et al., Anal. Biochem., 1993, 212, 58-64) and Nagase et al. (H. Nagase et al., J. Biol. Chem., 1994, 269, 20952-20957). The methods of inhibition experiments carried out for various MMPs are described below.
Human MMP14 (Biogenesis #5980-1461 or Calbiochem #475935) in amount of 90 μL (4 ng) prepared in the assay buffer A was added to 90 μL of 20 μM fluorescent substrate (Dnp-Pro-Cha-Gly-Cys(Me)-His-Ala-Lys(Nma)-NH2) prepared in the assay buffer B, followed by reaction for 5 hours at 37° C.

[4] = biological target: T4, Human MMP1 (Homo sapiens, UniProt P03956); experiment: MMP1 inhibition experiment; settings: read-out: IC50 value MMP-1
T4 construct: purchased Calbiochem 444208
T4 sequence (P03956 100-469): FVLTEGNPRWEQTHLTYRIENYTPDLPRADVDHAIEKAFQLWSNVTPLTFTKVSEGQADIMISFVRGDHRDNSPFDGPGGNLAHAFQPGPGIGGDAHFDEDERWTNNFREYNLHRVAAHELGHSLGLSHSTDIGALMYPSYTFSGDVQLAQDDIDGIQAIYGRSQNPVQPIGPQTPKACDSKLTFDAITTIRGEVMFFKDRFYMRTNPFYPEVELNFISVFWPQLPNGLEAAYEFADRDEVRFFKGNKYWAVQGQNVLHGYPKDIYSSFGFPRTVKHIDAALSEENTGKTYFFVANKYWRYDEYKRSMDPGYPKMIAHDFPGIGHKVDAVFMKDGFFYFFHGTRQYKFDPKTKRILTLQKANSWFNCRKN
Protocol: This enzyme solution in amount of 10 μL was diluted to 90 μL with the assay buffer A, which was added to 90 μL of 20 μM fluorescent substrate (Dnp-Pro-Cha(β-cyclohexylalanyl)-Gly-Cys(Me)-His-Ala-Lys(Nma)-NH2) prepared in the assay buffer B, followed by reaction for 5 hours at 37° C.

[5] = biological target: T5, Human MMP2 (Homo sapiens, UniProt P08253); experiment: MMP2 inhibition experiment; settings: concentration required for 50% inhibition of enzyme activity; read-out: IC50 value MMP-2
T5 construct: purchased Calbiochem 444213
T5 sequence (P08253 110-660): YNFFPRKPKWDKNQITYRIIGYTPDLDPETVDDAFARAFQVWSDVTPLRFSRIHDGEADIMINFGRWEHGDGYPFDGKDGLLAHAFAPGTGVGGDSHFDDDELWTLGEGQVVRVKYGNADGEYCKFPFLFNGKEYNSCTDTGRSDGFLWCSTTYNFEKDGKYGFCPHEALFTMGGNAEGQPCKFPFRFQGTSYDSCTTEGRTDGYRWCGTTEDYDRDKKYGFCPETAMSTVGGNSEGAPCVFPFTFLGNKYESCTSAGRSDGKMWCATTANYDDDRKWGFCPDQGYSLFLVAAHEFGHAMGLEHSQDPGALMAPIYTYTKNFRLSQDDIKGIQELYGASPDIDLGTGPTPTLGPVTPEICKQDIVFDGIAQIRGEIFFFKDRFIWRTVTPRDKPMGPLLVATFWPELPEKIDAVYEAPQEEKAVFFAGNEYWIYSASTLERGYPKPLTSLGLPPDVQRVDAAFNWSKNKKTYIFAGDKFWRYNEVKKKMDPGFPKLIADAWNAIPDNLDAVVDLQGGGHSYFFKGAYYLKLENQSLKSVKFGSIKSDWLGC
Protocol: This enzyme solution in amount of 10 μL was diluted to 90 μL with the assay buffer A, which was added to 90 μL of 20 μM fluorescent substrate (MOCAc((7-methoxycoumarin-4-yl)acetyl)-Pro-Leu-Gly-Leu-A2pr(Dnp)-Ala-Arg-NH2, Peptide Institute, Inc., #3163-v) prepared in the assay buffer B, followed by reaction for 5 hours at 37° C.

[6] = biological target: T6, Human MMP8 (Homo sapiens, UniProt P22894); experiment: MMP8 inhibition experiment; settings: concentration required for 50% inhibition of enzyme activity; read-out: IC50 value MMP-8
T6 construct: purchased Calbiochem 444229
T6 sequence (P22894 101-467): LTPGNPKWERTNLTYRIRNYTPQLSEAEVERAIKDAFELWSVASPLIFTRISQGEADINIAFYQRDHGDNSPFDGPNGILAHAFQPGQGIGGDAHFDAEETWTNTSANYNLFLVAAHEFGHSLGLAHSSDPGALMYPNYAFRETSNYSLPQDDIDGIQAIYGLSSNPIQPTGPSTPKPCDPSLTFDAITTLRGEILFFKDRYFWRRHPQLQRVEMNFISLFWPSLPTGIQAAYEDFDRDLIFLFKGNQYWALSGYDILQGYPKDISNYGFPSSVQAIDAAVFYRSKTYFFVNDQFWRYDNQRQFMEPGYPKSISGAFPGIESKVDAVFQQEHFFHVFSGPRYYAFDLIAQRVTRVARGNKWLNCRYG
Protocol: as §1
Human MMP8 (Calbiochem #444229) in amount of 90 μL (30 ng) was activated by mixing with 10 μL of 10 mM APMA, followed by reaction for 1 hour at 37° C. This enzyme solution in amount of 10 μL was diluted to 90 μL with the assay buffer A, which was added to 90 μL of […] fluorescent substrate (MOCAc-Pro-Leu-Gly-Leu-A2pr(Dnp)-Ala-Arg-NH2, Peptide Institute, Inc., #3163-v) prepared in the assay buffer B, followed by reaction for 5 hours at 37° C.

[7] = biological target: T7, Human MMP3 (Homo sapiens, UniProt P08254); experiment: MMP3 inhibition experiment; settings: concentration required for 50% inhibition of enzyme activity; read-out: IC50 value MMP-3
T7 construct: purchased Calbiochem 444217
T7 sequence (P08254 100-272 limits assumed): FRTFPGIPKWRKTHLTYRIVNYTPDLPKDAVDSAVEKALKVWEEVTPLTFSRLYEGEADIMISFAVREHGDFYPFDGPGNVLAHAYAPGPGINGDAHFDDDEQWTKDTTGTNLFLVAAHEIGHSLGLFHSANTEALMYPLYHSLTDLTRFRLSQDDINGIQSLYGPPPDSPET
Protocol: as §1
Human MMP3 (Calbiochem #444217) in 90 μL (5 ng) prepared in the assay buffer A was added to 90 μL of 20 μM fluorescent substrate NFF-3(MOCAc-Arg-Pro-Lys-Pro-Val-Glu-Nva-Trp-Arg-Lys(Dnp)-NH2, Peptide Institute, Inc., #3168-v) prepared in the assay buffer B, followed by reaction for 5 hours at 37° C.

[8] = biological target: T8, Human MMP9 (Homo sapiens, UniProt P14780); experiment: MMP9 inhibition experiment; settings: read-out: IC50 value MMP-9
T8 construct: purchased Calbiochem 444231
T8 sequence (P14780 107-707 limits assumed): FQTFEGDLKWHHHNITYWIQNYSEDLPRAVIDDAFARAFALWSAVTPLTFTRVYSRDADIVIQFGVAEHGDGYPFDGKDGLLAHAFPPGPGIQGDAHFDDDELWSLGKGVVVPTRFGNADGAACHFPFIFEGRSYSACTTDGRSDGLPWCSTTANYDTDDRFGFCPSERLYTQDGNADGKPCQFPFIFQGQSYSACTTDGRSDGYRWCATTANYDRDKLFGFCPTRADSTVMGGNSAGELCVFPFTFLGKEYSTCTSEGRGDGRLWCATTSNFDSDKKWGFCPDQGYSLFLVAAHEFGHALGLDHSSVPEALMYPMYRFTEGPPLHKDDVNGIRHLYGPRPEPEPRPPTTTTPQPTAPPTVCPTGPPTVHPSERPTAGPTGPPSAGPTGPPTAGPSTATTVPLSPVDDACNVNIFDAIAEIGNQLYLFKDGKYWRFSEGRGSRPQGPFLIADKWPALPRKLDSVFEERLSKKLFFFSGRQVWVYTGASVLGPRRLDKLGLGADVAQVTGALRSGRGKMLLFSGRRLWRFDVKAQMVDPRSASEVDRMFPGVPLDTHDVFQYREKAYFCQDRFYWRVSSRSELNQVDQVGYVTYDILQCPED
Protocol: This enzyme solution in amount of 1 μL was diluted to 90 μL with the assay buffer A, which was added to 90 μL of 20 μM fluorescent substrate (Dnp-Pro-Cha-Gly-Cys(Me)-His-Ala-Lys(Nma)-NH2) prepared in the assay buffer B, followed by reaction for 4 hours at 37° C.

[9] = biological target: T9, TACE (Homo sapiens, UniProt P78536); experiment: TACE inhibition experiment (in vitro)
T9 construct: made in house; host or cells: mammalian cells or insect cells
T9 sequence (P78536 215-824): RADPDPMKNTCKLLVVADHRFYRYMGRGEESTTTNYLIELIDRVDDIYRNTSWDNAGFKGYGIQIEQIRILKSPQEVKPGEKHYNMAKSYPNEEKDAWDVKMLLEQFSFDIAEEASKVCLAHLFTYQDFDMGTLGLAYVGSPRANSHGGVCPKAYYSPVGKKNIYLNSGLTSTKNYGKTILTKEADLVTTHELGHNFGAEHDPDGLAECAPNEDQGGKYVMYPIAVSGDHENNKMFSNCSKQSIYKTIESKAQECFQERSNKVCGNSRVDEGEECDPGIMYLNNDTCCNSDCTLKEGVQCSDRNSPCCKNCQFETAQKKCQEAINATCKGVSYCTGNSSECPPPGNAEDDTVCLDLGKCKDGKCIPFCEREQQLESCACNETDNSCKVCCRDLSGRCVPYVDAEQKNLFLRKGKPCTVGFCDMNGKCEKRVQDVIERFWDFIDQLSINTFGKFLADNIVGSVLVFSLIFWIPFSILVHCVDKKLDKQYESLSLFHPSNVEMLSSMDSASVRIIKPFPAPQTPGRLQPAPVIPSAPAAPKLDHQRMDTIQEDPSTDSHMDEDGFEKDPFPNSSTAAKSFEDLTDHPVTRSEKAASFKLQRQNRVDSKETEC
Protocol: TACE inhibition experiments were conducted using TACE obtained as above as an enzyme and by measuring TACE activity in the presence or absence of a test substance using Nma (N-metylanthranilic acid)-[sequence]Dnp(dinitrophenyl)-D-Arg-NH2 being a fluorescent synthetic substrate which contains the sequence of cleavage site of membrane-bound TNF by TACE, as a substrate.
More specifically, 14 units of an enzyme solution (1 unit is defined as the amount of enzyme which degrades 1 pmol of the substrate per minute at 25° C.) which was prepared in 90 μL of assay buffer A (50 mM Tris-HCl buffer (pH 7.5) containing 200 mM sodium chloride, 5 mM calcium chloride, 10 μM zinc sulfate, 0.004% sodium azide and 2 mg/mL bovine serum albumin) and 90 μL of 20 μM fluorescent synthetic substrate prepared in assay buffer B (50 mM Tris-HCl buffer (pH 7.5) containing 200 mM sodium chloride, 5 mM calcium chloride, 10 μM zinc sulfate, 0.004% sodium azide and 0.05% PLURONIC F-68) are mixed and reacted for 2 hours at 37° C.

[10] = concentration required for 50% inhibition of enzyme activity

SMILES	IC50 [1]	IC50 [2]	IC50 [3]	IC50 [4, 10]	IC50 [5]	IC50 [6]	IC50 [7]	IC50 [8, 10]	IC50 [4]	IC50 [9]	IC50 [8]	IC50 [9, 10]
Cc1cc(COc2ccc(S(=O)(=O)CC(C=C3CCOCC3)N(O)C=O)cc2)c2ccccc2n1 (single isomer, unassigned) [Example I-34, N-hydroxy-N-{2-[4-(2-methylquinolin-4-ylmethoxy)benzenesulfonyl]-1-(tetrahydropyran-4-ylidenemethyl)ethyl}formamide]	> 100 µM	40 µM	> 100 µM	> 100 µM	> 100 µM	> 100 µM	> 100 µM	> 100 µM	–	–	–	–
O=CN(O)C(C=C1CCC(=O)CC1)CS(=O)(=O)c1ccc(OCc2ccc3ccccc3n2)cc1 (centres unmarked) [Example I-84]	28 µM	42 µM	90 µM	–	6.6 µM	> 100 µM	78 µM	–	> 100 µM	0.55 µM	–	–
Cc1cc(COc2ccc(S(=O)(=O)CC(C=C3CCC(=NO)CC3)N(O)C=O)cc2)cc(C)n1 (centres unmarked) [Example I-111]	8 µM	30 µM	> 100 µM	–	4.1 µM	–	30 µM	–	> 100 µM	0.05 µM	> 100 µM	–
Cc1cc(Cl)cc(COc2ccc(S(=O)(=O)CC(CC3CCC(=NO)CC3)N(O)C=O)cc2)c1 (centres unmarked) [Example I-100]	6 µM	7 µM	25 µM	–	4 µM	–	7 µM	–	43 µM	0.2 µM	23 µM	–
Cc1cc(COc2ccc(S(=O)(=O)CC(C3CCC(=NOC=O)CC3)N(O)C=O)cc2)c2ccccc2n1 (centres unmarked) [Example I-13]	10 µM	0.7 µM	40 µM	–	40 µM	–	3 µM	–	60 µM	0.021 µM	28 µM	–
Cc1cc(COc2ccc(S(=O)(=O)CC(CN3CCN(CC(C)C)CC3)N(O)C=O)cc2)c2ccccc2n1 (centres unmarked) [Example I-46]	42 µM	0.65 µM	> 100 µM	–	20 µM	–	4.4 µM	–	> 100 µM	0.022 µM	> 100 µM	–
Cc1cc(COc2ccc(S(=O)(=O)CC(C(F)=C3CCOCC3)N(O)C=O)cc2)c2ccccc2n1 (centres unmarked) [Example I-16]	40 µM	5.5 µM	> 100 µM	–	40 µM	–	10 µM	–	> 100 µM	0.007 µM	> 100 µM	–
Cc1cc(Cl)cc(COc2ccc(S(=O)(=O)CC(C=C3CCC4(CC3)OCCO4)N(O)C=O)cc2)c1 (centres unmarked) [Example I-103]	25 µM	40 µM	33 µM	–	38 µM	–	30 µM	–	60 µM	0.5 µM	38 µM	–
CC(=O)N1CCCC(C(CS(=O)(=O)c2ccc(OCc3cc(C)nc4ccccc34)cc2)N(O)C=O)C1 (centres unmarked) [Example I-133]	25 µM	0.9 µM	–	–	28 µM	18 µM	1.7 µM	–	> 100 µM	0.026 µM	> 100 µM	–
Cc1cc(COc2ccc(S(=O)(=O)CC(CC3CCC(=NO)CC3)N(O)C=O)cc2)c2ccccc2n1 (centres unmarked) [Example I-27]	–	–	30 µM	–	–	8 µM	–	–	50 µM	–	–	–
Cc1ccc2nc(C)cc(COc3ccc(S(=O)(=O)CC(CC4CCC(=NO)CC4)N(O)C=O)cc3)c2c1 (centres unmarked) [Example I-76]	6 µM	1.6 µM	31 µM	–	10 µM	–	0.8 µM	–	40 µM	0.005 µM	40 µM	–
Cc1cc(Cl)cc(COc2ccc(S(=O)(=O)CC(CC3CCC4(CC3)OCCO4)N(O)C=O)cc2)c1 (centres unmarked) [Example I-99]	18 µM	13 µM	25 µM	–	5 µM	–	6 µM	–	40 µM	1.1 µM	20 µM	–
Cc1cc(Cl)cc(COc2ccc(S(=O)(=O)CC(C3CCC4(CC3)OCCO4)N(O)C=O)cc2)c1 (centres unmarked) [Example I-98]	2 µM	1.6 µM	7 µM	–	2 µM	–	1.2 µM	–	50 µM	0.08 µM	20 µM	–
Cc1cc(COc2ccc(S(=O)(=O)CC(CC3CCC(=O)CC3)N(O)C=O)cc2)cc(C)n1 (centres unmarked) [Example I-113]	2.3 µM	6 µM	60 µM	–	2 µM	–	8 µM	–	60 µM	0.13 µM	70 µM	–
CON=C1CCC(C(CS(=O)(=O)c2ccc(OCc3cc(C)nc4ccccc34)cc2)N(O)C=O)CC1 (centres unmarked) [Example I-12]	10 µM	2 µM	35 µM	–	30 µM	–	3 µM	–	45 µM	0.07 µM	28 µM	–
Cc1cc(COc2ccc(S(=O)(=O)CC(CC3CCC4(CC3)OCCO4)N(O)C=O)cc2)c2ccccc2n1 (centres unmarked) [Example I-10]	5 µM	1.1 µM	23 µM	–	6 µM	–	1.2 µM	12 µM	45 µM	–	–	0.06 µM
Cc1cc(Cl)cc(COc2ccc(S(=O)(=O)CC(C=C3CCC(=NO)CC3)N(O)C=O)cc2)c1 (centres unmarked) [Example I-102]	16 µM	30 µM	33 µM	–	20 µM	–	25 µM	–	80 µM	0.13 µM	40 µM	–
